Assay results as given in US20260234157A1, “COMPOUND AND METHOD FOR TARGETED DEGRADATION OF ANDROGEN RECEPTOR” (Gan & Lee Pharmaceuticals Co., Ltd., priority 2023, published 2026).
pIC50: −log10 of the molar value. Like-named read-outs stand apart in the source and are kept apart here.

How the values were obtained:
Type in all cases: cell-based
AR protein = biological target: T1, AR protein (Homo sapiens, UniProt P10275, T878A); test: Degradation of AR protein in LNCaP cells (Western blot); conditions: for inhibition at 0.01 µM: read-out: Degradation rates of the AR protein in LNCaP cells, 10 nM (%); for inhibition at 0.1 µM: read-out: Degradation rates of the AR protein in LNCaP cells, 100 nM (%)
T1 construct: degradation activity of the compounds disclosed in the present disclosure on AR protein in LNCaP cells; host or cells: LNCaP FGC
T1 sequence (P10275 1-920 T878A): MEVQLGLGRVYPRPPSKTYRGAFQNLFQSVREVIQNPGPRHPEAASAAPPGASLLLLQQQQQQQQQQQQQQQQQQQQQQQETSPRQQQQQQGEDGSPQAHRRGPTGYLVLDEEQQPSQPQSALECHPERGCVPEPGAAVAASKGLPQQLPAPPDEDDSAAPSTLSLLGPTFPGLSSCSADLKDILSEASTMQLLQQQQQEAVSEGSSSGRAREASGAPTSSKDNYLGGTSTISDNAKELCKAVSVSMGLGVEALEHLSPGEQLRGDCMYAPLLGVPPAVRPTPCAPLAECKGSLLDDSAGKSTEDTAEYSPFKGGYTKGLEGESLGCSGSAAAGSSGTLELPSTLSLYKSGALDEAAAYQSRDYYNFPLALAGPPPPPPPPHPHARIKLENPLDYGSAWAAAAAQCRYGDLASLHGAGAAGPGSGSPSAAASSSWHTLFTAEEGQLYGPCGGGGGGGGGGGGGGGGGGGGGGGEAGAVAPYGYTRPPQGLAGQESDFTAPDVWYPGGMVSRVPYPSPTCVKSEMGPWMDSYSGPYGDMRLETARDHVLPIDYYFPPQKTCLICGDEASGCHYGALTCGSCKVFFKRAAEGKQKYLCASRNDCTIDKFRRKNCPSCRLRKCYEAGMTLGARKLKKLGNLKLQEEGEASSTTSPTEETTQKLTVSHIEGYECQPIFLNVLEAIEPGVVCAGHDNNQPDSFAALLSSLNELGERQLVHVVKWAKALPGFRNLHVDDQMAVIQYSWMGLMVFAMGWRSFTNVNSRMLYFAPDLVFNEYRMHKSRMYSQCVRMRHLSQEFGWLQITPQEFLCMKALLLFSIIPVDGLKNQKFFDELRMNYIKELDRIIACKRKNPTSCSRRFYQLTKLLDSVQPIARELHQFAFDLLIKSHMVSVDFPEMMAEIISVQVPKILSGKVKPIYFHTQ
Summary of the method: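 Percent AR degradation was derived from GAPDH-normalised Western blot band intensities (infrared detection) in LNCaP lysates.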

LNCaP FGC cells = test: Inhibition of proliferation of LNCaP cells (WST-8); conditions: Homo sapiens, LNCaP, 96 h
Method: The cells were cultured in a cell culture incubator with 5% CO2 at 37° C. overnight. […] On the sixth day, 96 well plates were taken out, and 20 μL of WST-8 (Beytime, C0040) reagent was added to each well.

VCaP cells = test: Inhibition of proliferation of VCaP cells (WST-8); conditions: Homo sapiens, read-out: IC50 for inhibiting the proliferation of VCaP cells
Method: The inhibitory activity of the compounds disclosed in the present disclosure on the proliferation of VCaP cells
On the first day of the experiment, […] were inoculated in 96 well plates at a density of 15000 cells per well using DMEM medium containing 10% fetal bovine serum, with 100 μL of cell suspension per well. The cells were cultured in a cell culture incubator with 5% CO2 at 37° C. overnight. […] On the ninth day, 96 well plates were taken out, and 20 μL of WST-8 (Beytime, C0040) reagent was added to each well.

[1] = LNCaP cells, compound 10 nM, 8 hours, Western blot grayscale, GAPDH internal reference
[2] = LNCaP cells, compound 100 nM, 8 hours, Western blot grayscale, GAPDH internal reference
[3] = LNCaP FGC cells, 96 hours, WST-8 absorbance at 450 nm, read-out: IC50 for inhibiting the proliferation of LNCaP cells
[4] = VCaP cells, 168 hours, WST-8 absorbance at 450 nm
[5] = read-out: IC50 for inhibiting the proliferation of LNCaP cells, LNCaP FGC cells, 96 hours, WST-8 absorbance at 450 nm

| pIC50 (LNCaP FGC cells; [3]) | pIC50 (VCaP cells; [4]) | Compound | pIC50 (LNCaP FGC cells; [5]) | pIC50 (VCaP cells; VCaP, 168 h) | other results |
| --- | --- | --- | --- | --- | --- |
| 4.22 | 8.70 | N#Cc1ccc(O[C@H]2CC[C@H](NC(=O)c3ccc(N4CCC(N5CCC(C(=O)N6CCC7(CC6)COc6c7ccc7c6CN(C6CCC(=O)NC6=O)C7=O)CC5)CC4)nn3)CC2)cc1Cl (stereo partly drawn) [Compound 160] | – | – | inhibition at 0.01 µM (AR protein; [1]): 67%; inhibition at 0.1 µM (AR protein; [2]): 76% |
| – | – | N#Cc1ccc(O[C@H]2CC[C@H](NC(=O)c3ccc(N4CC(N5CCC6(CC5)Oc5cc7c(cc5CC6(F)F)C(=O)N(C5CCC(=O)NC5=O)C7=O)C4)nn3)CC2)cc1Cl (stereo partly drawn) [Compound 37] | 5.34 | 5.49 | inhibition at 0.01 µM (AR protein; LNCaP, 8 h): 5%; inhibition at 0.1 µM (AR protein; LNCaP, 8 h): 29% |
| 5.95 | 6.24 | COC1(CN2CCC3(CC2)Cc2cc4c(cc2O3)C(=O)N(C2CCC(=O)NC2=O)C4=O)CCN(c2ccc(C(=O)N[C@H]3CC[C@H](Oc4ccc(C#N)c(Cl)c4)CC3)nn2)CC1 (stereo partly drawn) [Compound 199] | – | – | – |
| – | – | CC1(C)C(=O)N(c2ccc(C#N)c(C(F)(F)F)c2)C(=S)N1c1ccc(C(=O)N2CC[C@@H](CN3CCC4(CC3)COc3cc5c(cc3C4)C(=O)N(C3CCC(=O)NC3=O)C5=O)C2)c(F)c1 (stereo partly drawn) [Compound 83] | 5.15 | 5.01 | – |
| – | – | N#Cc1ccc(O[C@H]2CC[C@H](NC(=O)c3ccc(N4CCC(N5CCC6(CC5)CC(F)(F)c5cc7c(cc5O6)C(=O)N(C5CCC(=O)NC5=O)C7=O)CC4)nn3)CC2)cc1Cl (stereo partly drawn) [Compound 38] | 5.62 | 5.28 | inhibition at 0.01 µM (AR protein; LNCaP, 8 h): 29%; inhibition at 0.1 µM (AR protein; LNCaP, 8 h): 48% |
| – | – | CC1(C)C(=O)N(c2ccc(C#N)c(C(F)(F)F)c2)C(=S)N1c1ccc(C(=O)N2CC3(CCC(N4CCC5(CC4)COc4cc6c(cc4C5)C(=O)N(C4CCC(=O)NC4=O)C6=O)CC3)C2)c(F)c1 (stereo not drawn) [Compound 86] | 5.34 | 5.60 | – |
| 6.07 | 7.70 | COC1(CN2CCC3(CC2)COc2c(ccc4c2C(=O)N(C2CCC(=O)NC2=O)C4)C3)CCN(c2ccc(C(=O)NC3CCC(Oc4ccc(C#N)c(Cl)c4)CC3)nn2)CC1 (stereo not drawn) [Compound 186] | – | – | – |
| – | – | CC1(C)C(=O)N(c2ccc(C#N)c(C(F)(F)F)c2)C(=S)N1c1ccc(C(=O)N2CCC3(CC2)CC(N2CCC4(CC2)COc2cc5c(cc2C4)C(=O)N(C2CCC(=O)NC2=O)C5=O)C3)c(F)c1 (stereo not drawn) [Compound 123] | 5.57 | 5.47 | – |
| – | – | CC1(C)C(=O)N(c2ccc(C#N)c(C(F)(F)F)c2)C(=S)N1c1ccc(C(=O)N2CC3(CC(N4CCC5(CCc6cc7c(cc6O5)C(=O)N(C5CCC(=O)NC5=O)C7=O)CC4)C3)C2)c(F)c1 (stereo not drawn) [Compound 100] | 4.55 | 6.21 | – |
| – | – | CC1(C)C(=O)N(c2ccc(C#N)c(C(F)(F)F)c2)C(=S)N1c1ccc(C(=O)N2CCC(CN3CCC4(CCc5cc6c(cc5O4)CN(C4CCC(=O)NC4=O)C6=O)CC3)CC2)c(F)c1 (stereo not drawn) [Compound 85] | 5.27 | 5.13 | – |
| – | – | CC1(C)C(=O)N(c2ccc(C#N)c(C(F)(F)F)c2)C(=S)N1c1ccc(C(=O)N2CCC(CN3CCC4(CC3)COc3cc5c(cc3C4)C(=O)N(C3CCC(=O)NC3=O)C5=O)CC2)c(F)c1 (stereo not drawn) [Compound 82] | 5.47 | 5.37 | – |
| – | – | N#Cc1ccc(O[C@H]2CC[C@H](NC(=O)c3ccc(N4CC5(CCC(N6CCC(N7CCC8(CC7)COc7c8ccc8c7CN(C7CCC(=O)NC7=O)C8=O)CC6)CC5)C4)nn3)CC2)cc1Cl (stereo partly drawn) [Compound 175] | 5.09 | 8.00 | – |
| 5.22 | 5.13 | N#Cc1ccc(O[C@H]2CC[C@H](NC(=O)c3ccc(N4CCC5(CC4)COc4cc6c(cc4O5)C(=O)N(C4CCC(=O)NC4=O)C6=O)nn3)CC2)cc1Cl (stereo partly drawn) [Compound 75] | – | – | inhibition at 0.01 µM (AR protein; [1]): 41%; inhibition at 0.1 µM (AR protein; [2]): 36% |
| 6.03 | 5.92 | N#Cc1ccc(O[C@H]2CC[C@H](NC(=O)c3ccc(N4CCN(C5CCC6(CCc7cc8c(cc7O6)C(=O)N(C6CCC(=O)NC6=O)C8=O)CC5)CC4)nn3)CC2)cc1Cl (stereo partly drawn) [Compound 29] | – | – | inhibition at 0.01 µM (AR protein; [1]): 35%; inhibition at 0.1 µM (AR protein; [2]): 63% |
| – | – | CC1(CN2CCC3(CC2)COc2cc4c(cc2C3)C(=O)N(C2CCC(=O)NC2=O)C4=O)CCN(C(=O)c2ccc(N3C(=S)N(c4ccc(C#N)c(C(F)(F)F)c4)C(=O)C3(C)C)cc2F)CC1 (stereo not drawn) [Compound 114] | 5.12 | 5.48 | – |
| 6.14 | 5.55 | CC1(CN2CC3(CCc4cc5c(cc4O3)CN(C3CCC(=O)NC3=O)C5=O)C2)CCN(c2ccc(C(=O)N[C@H]3CC[C@H](Oc4ccc(C#N)c(Cl)c4)CC3)nn2)CC1 (stereo partly drawn) [Compound 80] | – | – | – |
| 4.87 | 6.19 | N#Cc1ccc(O[C@H]2CC[C@H](NC(=O)c3ccc(N4CCC(F)(CN5CCC6(CCc7ccc8c(c7O6)C(=O)N(C6CCC(=O)NC6=O)C8)CC5)CC4)nn3)CC2)cc1Cl (stereo partly drawn) [Compound 163] | – | – | – |
| – | – | COC1(CN2CC3(CCc4cc5c(cc4O3)CN(C3CCC(=O)NC3=O)C5=O)C2)CCN(C(=O)c2ccc(N3C(=S)N(c4ccc(C#N)c(C(F)(F)F)c4)C(=O)C3(C)C)cc2F)CC1 (stereo not drawn) [Compound 89] | 5.49 | 6.46 | – |
| – | – | CC1(C)C(=O)N(c2ccc(C#N)c(C(F)(F)F)c2)C(=S)N1c1ccc(C(=O)N2CC(N3CCC4(CC3)COc3cc5c(cc3C4)C(=O)N(C3CCC(=O)NC3=O)C5=O)C2)c(F)c1 (stereo not drawn) [Compound 112] | 5.09 | 5.29 | – |
| – | – | CC1(C)C(=O)N(c2ccc(C#N)c(C(F)(F)F)c2)C(=S)N1c1ccc(C(=O)N2CC[C@H](CN3CCC4(CC3)COc3cc5c(cc34)C(=O)N(C3CCC(=O)NC3=O)C5=O)C2)c(F)c1 (stereo partly drawn) [Compound 125] | 5.16 | 5.03 | – |
| – | – | CC1(C)C(=O)N(c2ccc(C#N)c(C(F)(F)F)c2)C(=S)N1c1ccc(C(=O)N2CCC(F)(CN3CC4(CCc5cc6c(cc5O4)C(=O)N(C4CCC(=O)NC4=O)C6)C3)CC2)c(F)c1 (stereo not drawn) [Compound 81] | 5.41 | 7.52 | – |

| Compound | pIC50 (LNCaP FGC cells; [3]) | pIC50 (VCaP cells; [4]) | pIC50 (LNCaP FGC cells; [5]) | pIC50 (VCaP cells; VCaP, 168 h) | other results |
| --- | --- | --- | --- | --- | --- |
| CC1(C)C(=O)N(c2ccc(C#N)c(C(F)(F)F)c2)C(=S)N1c1ccc(C(=O)N2CCC(CN3CC4(CCc5cc6c(cc5O4)CN(C4CCC(=O)NC4=O)C6=O)C3)CC2)c(F)c1 (stereo not drawn) [Compound 124] | 5.10 | 5.53 | – | – | – |
| COC1(CN2CC3(CCc4cc5c(cc4O3)C(=O)N(C3CCC(=O)NC3=O)C5=O)C2)CCN(C(=O)c2ccc(N3C(=S)N(c4ccc(C#N)c(C(F)(F)F)c4)C(=O)C3(C)C)cc2F)CC1 (stereo not drawn) [Compound 88] | 6.28 | 6.77 | – | – | – |
| N#Cc1ccc(O[C@H]2CC[C@H](NC(=O)c3ccc(N4CCC5(CC4)CC(N4CCC6(CC4)COc4c6ccc6c4C(=O)N(C4CCC(=O)NC4=O)C6=O)C5)nn3)CC2)cc1Cl (stereo partly drawn) [Compound 143] | 6.46 | 7.70 | – | – | – |
| CC1(C)C(=O)N(c2ccc(C#N)c(C(F)(F)F)c2)C(=S)N1c1ccc(C(=O)N2CCC(CN3CCN(c4cc5c(cc4F)C(=O)N(C4CCC(=O)NC4=O)C5=O)CC3)CC2)c(F)c1 (stereo not drawn) [Compound 87] | 5.29 | 5.38 | – | – | – |
